The target of one data set is hCA I (Homo sapiens, UniProt P00915). The experiment in a line: CA inhibition assay, stopped-flow CO2 hydration.
In another data set the target is hCA II (Homo sapiens, UniProt P00918). The experiment in a line: CA inhibition assay, stopped-flow CO2 hydration.
A further data set has as its target hCA VII (Homo sapiens, UniProt P43166). The experiment in a line: CA inhibition assay, stopped-flow CO2 hydration.
In the next data set the target is hCA IX (Homo sapiens, UniProt Q16790). The experiment in a line: CA inhibition assay, stopped-flow CO2 hydration.

This note sets out measurements from PMC6009903, “Synthesis, biological activity and multiscale molecular modeling studies for coumaryl-carboxamide derivatives as selective carbonic anhydrase IX inhibitors” (Journal of Enzyme Inhibition and Medicinal Chemistry, 2017).

The structures appear in SMILES notation. pKi: −log10 of the molar value. A value given as a limit tells only on which side of the number the result lay.

hCA I, sequence (P00915 whole entry): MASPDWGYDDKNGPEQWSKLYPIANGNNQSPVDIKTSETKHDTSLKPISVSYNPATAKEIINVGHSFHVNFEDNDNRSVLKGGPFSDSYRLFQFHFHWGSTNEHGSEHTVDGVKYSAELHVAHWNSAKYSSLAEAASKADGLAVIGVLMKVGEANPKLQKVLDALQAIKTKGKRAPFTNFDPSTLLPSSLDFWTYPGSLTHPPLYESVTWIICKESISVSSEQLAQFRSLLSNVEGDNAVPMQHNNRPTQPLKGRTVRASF
hCA VII, sequence (P43166 whole entry): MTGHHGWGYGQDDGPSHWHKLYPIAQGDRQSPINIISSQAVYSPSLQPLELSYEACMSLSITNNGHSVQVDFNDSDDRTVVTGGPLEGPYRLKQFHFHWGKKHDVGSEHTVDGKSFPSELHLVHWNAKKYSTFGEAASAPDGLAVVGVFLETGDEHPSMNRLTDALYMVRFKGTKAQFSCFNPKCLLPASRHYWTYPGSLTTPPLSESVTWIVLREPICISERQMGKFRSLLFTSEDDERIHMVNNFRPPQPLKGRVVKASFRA
Source text for hCA II: (§1) An SX.18 MV-R Applied Photophysics (Oxford, UK) stopped-flow instrument has been used to assay the catalytic/inhibition of various CA isozymes[51]. […] The inhibition constants were obtained by non-linear least-squares methods using the Cheng–Prusoff equation, as reported earlier[39] and represent the mean from at least three different determinations. All CA isozymes used here were recombinant proteins obtained as reported earlier by our group[27]^,[32]^,[40]^,[52].
Source text for hCA IX: as §1
Source text for hCA VII: as §1

For orientation: pKi means the negative decadic logarithm of the Ki, by convention in mol/L. What is called melting point is the temperature of the solid-liquid transition. Consider `CNC(=S)NC(=O)c1cc2ccccc2oc1=O` [e1, N-(methylcarbamothioyl)-2-oxo-2H-chromene-3-carboxamide], for which the melting point lay in the range of 146 to 148 °C. The same compound showed a negative-log Ki (pKi) on hCA I of less than 5.00. The same compound had a negative-log Ki (pKi) on hCA II of less than 5.00. The negative logarithm of the Ki (pKi) at hCA VII is less than 5.00. Also, at hCA IX, the negative-log Ki (pKi) was 6.49.

For `CCCNC(=S)NC(=O)c1cc2ccccc2oc1=O` [e2, 2-oxo-N-(propylcarbamothioyl)-2H-chromene-3-carboxamide], the melting point turned out to be 123 °C. This compound also had a negative logarithm of the Ki (pKi) on hCA I of less than 5.00. This compound gave a negative logarithm of the Ki (pKi) on hCA II of less than 5.00. This compound also had a negative logarithm of the Ki (pKi) on hCA VII of less than 5.00. In addition, the negative-log Ki (pKi) at hCA IX was 6.54.

For the compound `CCN(CC)C(=S)NC(=O)c1cc2ccccc2oc1=O` [e3, N-(diethylcarbamothioyl)-2-oxo-2H-chromene-3-carboxamide], the melting point was determined as 143 °C. This compound showed a negative logarithm of the Ki (pKi) on hCA I of less than 5.00. The compound also gave a negative-log Ki (pKi) at hCA II of less than 5.00. This compound showed a pKi on hCA VII of less than 5.00. Besides, the negative-log Ki (pKi) on hCA IX is 6.42.

Consider `CC(C)N(C(=S)NC(=O)c1cc2ccccc2oc1=O)C(C)C` [e4, N-(diisopropylcarbamothioyl)-2-oxo-2H-chromene-3-carboxamide], for which the melting point lay in the range of 150 to 151 °C. On hCA I, this compound gave a pKi of less than 5.00. Moreover, the negative logarithm of the Ki (pKi) on hCA II was less than 5.00. Also, at hCA VII, the pKi was less than 5.00. The compound also gave a pKi on hCA IX of 6.45.

As for `O=C(NC(=S)NC1CCCCC1)c1cc2ccccc2oc1=O` [e5, N-(cyclohexylcarbamothioyl)-2-oxo-2H-chromene-3-carboxamide], the pKi at hCA I is less than 5.00; on hCA II, less than 5.00; at hCA VII it was less than 5.00; on hCA IX it was 6.94.

Compound `O=C(NC(=S)N1CCCC1)c1cc2ccccc2oc1=O` [e6, 2-oxo-N-(pyrrolidine-1-carbonothioyl)-2H-chromene-3-carboxamide] yielded a melting point of 162 to 163 °C. Besides, at hCA I, the pKi was less than 5.00. For the same compound, on hCA II, the negative logarithm of the Ki (pKi) is less than 5.00. In addition, at hCA VII, the pKi was less than 5.00. In addition, the negative logarithm of the Ki (pKi) at hCA IX was 6.53.

For `O=C(NC(=S)N1CCCCC1)c1cc2ccccc2oc1=O` [e7, 2-oxo-N-(piperidine-1-carbonothioyl)-2H-chromene-3-carboxamide], the melting point is 175 to 176 °C. This compound also had a pKi at hCA I of less than 5.00. On hCA II, the pKi is less than 5.00. The compound also gave a negative logarithm of the Ki (pKi) on hCA VII of less than 5.00. At hCA IX, this compound had a pKi of 6.70.

As to `CN1CCN(C(=S)NC(=O)c2cc3ccccc3oc2=O)CC1` [e8, N-(4-methylpiperazine-1-carbonothioyl)-2-oxo-2H-chromene-3-carboxamide], the melting point fell in the range of 162 to 164 °C. The pKi on hCA I was less than 5.00. At hCA II, this compound gave a pKi of less than 5.00. This compound also gave a pKi at hCA VII of less than 5.00. This compound showed a pKi at hCA IX of 6.89.

`O=C(NC(=S)N1CCOCC1)c1cc2ccccc2oc1=O` [e9, N-(morpholine-4-carbonothioyl)-2-oxo-2H-chromene-3-carboxamide] returned a melting point of 123 to 125 °C. This compound also gave a negative logarithm of the Ki (pKi) at hCA I of less than 5.00. The compound also had a pKi at hCA II of less than 5.00. At hCA VII, this compound had a negative logarithm of the Ki (pKi) of less than 5.00. Moreover, the pKi on hCA IX was 6.86.

Take `O=C(NC(=S)NC1Cc2ccccc2C1)c1cc2ccccc2oc1=O` [e10, N-((2,3-dihydro-1H-inden-2-yl)carbamothioyl)-2-oxo-2H-chromene-3-carboxamide]: the pKi is less than 5.00 at hCA I, less than 5.00 on hCA II, less than 5.00 at hCA VII and 6.89 on hCA IX.

Take `O=C(NC(=S)NCCN1CCCC1)c1cc2ccccc2oc1=O` [e11, 2-oxo-N-((2-(pyrrolidin-1-yl)ethyl)carbamothioyl)-2H-chromene-3-carboxamide]: the melting point was in the range of 131 to 132 °C. Also, the negative logarithm of the Ki (pKi) on hCA I was less than 5.00. On hCA II, the pKi was less than 5.00. The compound further gave a pKi at hCA VII of less than 5.00. Besides, on hCA IX, the pKi was 6.97.

`O=C(NC(=S)NCCN1CCOCC1)c1cc2ccccc2oc1=O` [e12, N-((2-morpholinoethyl)carbamothioyl)-2-oxo-2H-chromene-3-carboxamide] returned a melting point of 136 to 138 °C. Further, on hCA I, the pKi is less than 5.00. Also, on hCA II, the pKi is less than 5.00. The compound also had a negative logarithm of the Ki (pKi) at hCA VII of less than 5.00. This compound had a pKi on hCA IX of 6.65.

In the case of `O=C(NC(=S)NCCC1=CCCCC1)c1cc2ccccc2oc1=O` [e13, N-((2-(cyclohex-1-en-1-yl)ethyl)carbamothioyl)-2-oxo-2H-chromene-3-carboxamide], the melting point is 142 to 143 °C. At hCA I, this compound had a pKi of less than 5.00. In addition, at hCA II, the pKi was less than 5.00. The pKi on hCA VII was less than 5.00. The same compound gave a pKi on hCA IX of 6.75.

`COc1ccc(CCNC(=S)NC(=O)c2cc3ccccc3oc2=O)cc1OC` [e14, N-((3,4-dimethoxyphenethyl)carbamothioyl)-2-oxo-2H-chromene-3-carboxamide] registered a melting point of 148 to 149 °C. On hCA I, the pKi was less than 5.00. The pKi at hCA II is less than 5.00. The pKi on hCA VII was less than 5.00. Besides, the negative-log Ki (pKi) at hCA IX was 6.71.

On to `O=C(NC(=S)NCc1ccc2c(c1)OCO2)c1cc2ccccc2oc1=O` [e15, N-((benzo[d][1,3]dioxol-5-ylmethyl)carbamothioyl)-2-oxo-2H-chromene-3-carboxamide], for which the melting point was in the range of 188 to 190 °C. This compound also gave a negative logarithm of the Ki (pKi) on hCA I of less than 5.00. At hCA II, this compound showed a negative-log Ki (pKi) of less than 5.00. Moreover, the pKi on hCA VII is less than 5.00. Further, the pKi at hCA IX was 6.73.

Compound `O=C(NC(=S)NN1CCOCC1)c1cc2ccccc2oc1=O` [e16, N-(morpholinocarbamothioyl)-2-oxo-2H-chromene-3-carboxamide] returned a melting point of 180 to 182 °C. The pKi at hCA I is less than 5.00. Moreover, on hCA II, the negative-log Ki (pKi) was less than 5.00. At hCA VII, the pKi is less than 5.00. This compound also gave a pKi at hCA IX of 5.59.

As for `CN1CCN(NC(=S)NC(=O)c2cc3ccccc3oc2=O)CC1` [e17, N-((4-methylpiperazin-1-yl)carbamothioyl)-2-oxo-2H-chromene-3-carboxamide], the melting point is 204 °C. At hCA I, this compound showed a negative-log Ki (pKi) of less than 5.00. The compound further gave a pKi on hCA II of less than 5.00. At hCA VII, this compound had a negative-log Ki (pKi) of less than 5.00. This compound also showed a pKi on hCA IX of 6.59.

`O=C(NC(=S)NN1CCCCC1)c1cc2ccccc2oc1=O` [e18, 2-oxo-N-(piperidin-1-ylcarbamothioyl)-2H-chromene-3-carboxamide] returned a melting point of 206 °C. Moreover, on hCA I, the pKi was less than 5.00. Moreover, the pKi at hCA II was less than 5.00. The pKi at hCA VII was less than 5.00. This compound also had a pKi at hCA IX of 6.41.

Take `O=C(NC(=S)NCCN1CCNCC1)c1cc2ccccc2oc1=O` [e19, 2-oxo-N-((2-(piperazin-1-yl)ethyl)carbamothioyl)-2H-chromene-3-carboxamide]: the melting point lay within 163 to 165 °C.

`CN(C)CCCNC(=S)NC(=O)c1cc2ccccc2oc1=O` [e20, N-((3-(dimethylamino)propyl)carbamothioyl)-2-oxo-2H-chromene-3-carboxamide] returned a melting point of 100 °C. In addition, the pKi at hCA I is less than 5.00. Also, the pKi on hCA II was less than 5.00. The compound also showed a negative logarithm of the Ki (pKi) at hCA VII of less than 5.00. The compound also gave a negative-log Ki (pKi) on hCA IX of 6.74.
